From patent US11098057B2, “9,10,11,12-tetrahydro-8H-[1,4]diazepino[5′,6′:4,5]thieno[3,2-F]quinolin-8-one compounds and uses thereof” (Celgene CAR LLC, priority 2017, dated 2021)

Tested on: phosphorylation of Hsp27 (Ser78) in Thp-1 human acute monocytic leukemia cells
Assay: MK2 cellular assay, detection of total and phospho-Hsp27 (Serine 78) by MSD ELISA (Thp1)
Assay type: cell-based
Details: Thp-1 cells, 1 hour compound, then 50 ng/mL LPS for 45 minutes, read-out: pHSP27 signaling EC50
Protocol: MK2 Cellular Assay—Detection of Total and Phospho-Hsp27 (Serine 78) by MSD ELISA (Thp1)
Compounds of the invention can be assayed in Thp-1 human acute monocytic leukemia cells to measure inhibition of MK2 activity according to procedures detailed in the '463 application.
Specifically, Thp-1 cells were grown in culture medium containing RPMI/10% FBS (fetal bovine serum)/0.05 mM 2-mercaptoethanol. 72 hours prior to the assay, 8×10^4 cells per well were plated in a 96 well flat bottom plate along with 10 ng/mL phorbol 12-myristate 13-acetate (PMA). Cells were cultured in an incubator at 37° C. until needed for the assay. Cell plate media was replaced with culture media just prior to assay while compound dilutions were being made.
Stock solutions of test compound, 1 mM in DMSO, were prepared. […]
The MULTI-SPOT Phospho(Ser78)/Total HSP27 ELISA Assay kit was purchased from Meso Scale […] (MSD; catalog #K15128D). […] 150 μl/well 1×MSD read buffer was added (4× read buffer supplied with kit) and the plate was analyzed on the MSD SECTOR®Imager for analysis. The SECTOR®Imager measures intensity of emitted light to provide a quantitative measure of phosphorylated HSP27 (Ser78) and total HSP27 present in the sample. The relative percent phosphoprotein in a sample is calculated by dividing the Phospho-HSP27 signal intensity over the total HSP27 signal intensity measured in each well.

CCOCc1cnc(Cl)nc1Oc1ccc2c(ccc3sc4c(c32)NC[C@H](C)NC4=O)n1 [Compound I-82]
EC50: 101 to 500 nM
